Results: patent US20250177448A1, “NEW USE OF PEG-PHOSPHOLIPID MOLECULES” (ICOAT MEDICAL AB, priority 2022, published 2025)
Entries after “also recorded” stand apart in the source; their conditions may differ.

Key:
blood group B antigen = assay: Anti-blood group B antigen antibody binding to coated human erythrocytes, flow cytometry; assay type: cell-based; conditions: blood type B RBCs, 2 mg/ml in PBS, 30 min room temperature
Method: Human erythrocytes were isolated from healthy human donors. They were pre-selected for specific blood types and only individuals exposing blood type B antigens were used. Human blood was drawn from the donors using a vacuum blood collection tube (5 mL, EDTA-2Na treated, TERUMO Co., Tokyo, Japan).
After plasma and buffy coat were removed by centrifugation (15 min, 2500×g, 3 times), the erythrocytes were re-suspended in cold PBS.
This Example was approved by ethical committee of the University of Tokyo (KE17-13). Human red blood cells (RBC) were isolated from whole blood of a type-B donor and suspended in phosphate-buffered saline (PBS). A cell pellet of RBCs (5×10^7 cells) was incubated with PEG-phospholipid (20 μl, 2 mg/ml in PBS) or PBS (50 μl, as control) for 30 min at room temperature (RT, 20-25° C.) with gentle mixing. After wash with PBS by centrifugation (120×g, 4° C., 1 min) twice, Alexa488-labeled anti-blood group B antigen antibody (10 μl, used without dilution, Blood Group B antigen antibody [HEB-29], GeneTex) or PBS (10 μl) was mixed with the treated RBCs for 10 min at RT. After washing with PBS by centrifugation (120×g, 4° C., 1 min), RBC were re-suspended with PBS (1 ml) for flow cytometry measurements. […] Post analysis processing was carried out in FlowJo (BD).

[1] = system: porcine kidney transplant, ischemia reperfusion injury; assay: Porcine clinical-like allogeneic survival transplantation model (CLSM); assay type: in vivo, pig; conditions: not shown
Source text: During and after surgery, systemic blood was collected for up to 4 days and analyzed for creatinine, sodium, potassium and phosphate (Section for Clinical Chemistry, Uppsala University Hospital).
These studies were approved by the Ethics Committee for Animal Experimentation, Uppsala, Sweden, Dnr C123/14. For each of these studies (SM and CLSM) five donor pigs and 10 recipient pigs of both sexes were used. All pigs were certified SPF pigs (Yorkshire×Hampshire) and bred at Lövsta University herd, SLU, Sweden. At arrival to SLU the pigs were 8 weeks old.
For the SM study, the pigs were selected after typing for Swine Leucocyte Antigen (SLA) class 1 in the following manner: the donor pigs were obtained from two litters and not related to any of the recipients. The recipient pigs were siblings, matched in pairs according to SLA class 1 (see below). For the CLSM study, all recipient pigs were siblings and not related to the donors, but these the pigs were not SLA-typed.
CLSM study: In this study, the retrieval of the kidney resembled the standard operative procedure of human organ procurement. Each donor was randomized to either PEG-phospholipid or HTK treatment. […]
The recipient pigs underwent allogeneic single kidney transplantation. […] By using a urine stick the sample was analyzed for proteinurea and hematuria. […]

CD31 = assay: Masking of antigens on HUVECs by coating with PEG-phospholipid, flow cytometry; assay type: cell-based, human; conditions: HUVEC, 0.5 mg/ml, 45 mins RT
Method: (§1) One hundred μL of HUVEC cell pellet (5×10^4 cells) were incubated in 0.5 mg/ml of PEG-phospholipid solution (final concentration, polyethylene glycol-phospholipid with PEG of 5 kDa (PEG-phospholipid) in PBS, SUNBRIGHT® PP-050CN, N-(methylpolyoxyethylene oxycarbonyl)-1,2-dipalmitoyl-sn-glycero-3-phosphoethanolamine, sodium salt, NOF Corp., Japan) or PBS for 45 mins at RT. Then, the cells were incubated with 5 μg/mL of FITC labelled antibodies for 15 min at RT: CD31 antibody (5 μg/ml) or isotype control Ab-FITC (BD biosciences) or with rabbit anti von Willebrand Factor (vWF) with rabbit IgG as control, both visualized by Alexa 488 goat anti-rabbit antibodies as given in Table 1.
(§2) Post analysis processing was carried out in FlowJo.

[2] = system: von Willebrand Factor (vWF); assay: as above; assay type: cell-based, human; conditions: HUVEC, 0.5 mg/ml, 45 mins RT
Method: as §1, §2

[3] = Vascular and tubular distribution and detachment of PEG-phospholipid in vivo (transplanted pig kidney)
Method: Full information on donor and recipient pigs is given in Example 5. […] Four recipient pigs were transplanted with biotin-PEG-phospholipid-treated kidneys. Their native kidneys were not removed and remained in the animals throughout the study. The four recipient pigs were euthanized after 12, 24, 48 and 72 h, respectively and biopsies were taken at euthanasia from the biotin-PEG-phospholipid treated kidney and one of the native kidneys. Frozen sections (4 μm thickness) were incubated in Alexa488-streptavidin (GE Healthcare, 1:500) at RT for 10 min. The sections were analyzed by laser-scanning confocal microscopy (LSM510, META, Carl Zeiss, Germany).
Frozen sections (4 μm thickness) of kidneys treated with biotin-PEG-phospholipid and control kidneys were incubated in Alexa488-streptavidin (GE Healthcare, 1:500) at RT for 10 min. The sections were analyzed by laser-scanning confocal microscopy (LSM510, META, Carl Zeiss, Germany).

N-(methylpolyoxyethylene oxycarbonyl)-1,2-dipalmitoyl-sn-glycero-3-phosphoethanolamine [PEG-phospholipid]
binding capacity of anti-blood group B antigen-antibody (blood group B antigen): effectively reduced; also recorded: effective masking | complement and coagulation markers (C3a, sC5b-9, TAT, C3b) ([1]; displaying lower values): confirmed these results | cytokines / systemic inflammation [1]: confirmed these results | masking of CD31 (CD31): < 20% | detection of vWF [2]: did not decrease | t½ of PEG-phospholipid calculated from fluorescence images ([3]; pig kidney, biotin-labeled PEG-phospholipid, 95% confidence interval 8-26): 14 h | systemic leakage of PEG-phospholipid (autologous kidneys of the recipient) ([3]; reliably detected only after 1 hour): very low
